Measurements: ChEMBL document CHEMBL1201862, “PubChem BioAssay data set” (2004)
“And” between values parts separate entries of the source, which are not always exact repeats. Equal values may be shown once.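 How tested: cells in 96-well plates exposed to compound for 48 hours at five concentrations. GI50 = concentration required for 50% inhibition of growth.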 The source made the active and inactive calls. Rule as the data show it: active = GI50 up to about 1.1 µM and inactive = higher.

Legend:
Test in all cases: NCI anticancer screen, dose series, 48 h
786-0 = test system: 786-0
ACHN = test system: ACHN
CAKI-1 = test system: CAKI-1
HCT-116 = test system: HCT-116
HOP-62 = test system: HOP-62
HOP-92 = test system: HOP-92
IGROV-1 = test system: IGROV-1
MCF7 = test system: MCF7
MOLT-4 = test system: MOLT-4
NCI-H226 = test system: NCI-H226
NCI-H23 = test system: NCI-H23
NCI-H460 = test system: NCI-H460
NCI-H522 = test system: NCI-H522
SF-268 = test system: SF-268
SF-295 = test system: SF-295
SK-MEL-2 = test system: SK-MEL-2
SN12C = test system: SN12C
TK-10 = test system: TK-10
U-251 = test system: U-251
UO-31 = test system: UO-31

| SMILES | GI50 (786-0) | GI50 (ACHN) | GI50 (CAKI-1) | GI50 (HCT-116) | GI50 (HOP-62) | GI50 (HOP-92) | GI50 (IGROV-1) | GI50 (MCF7) | GI50 (MOLT-4) | GI50 (NCI-H226) | GI50 (NCI-H23) | GI50 (NCI-H460) | GI50 (NCI-H522) | GI50 (SF-268) | GI50 (SF-295) | GI50 (SK-MEL-2) | GI50 (SN12C) | GI50 (TK-10) | GI50 (U-251) | GI50 (UO-31) |
| --- | --- | --- | --- | --- | --- | --- | --- | --- | --- | --- | --- | --- | --- | --- | --- | --- | --- | --- | --- | --- |
| O=[N+]([O-])/C=C/c1c(Cl)cccc1Cl | 0.809 µM (active) | 2.48 µM (inactive) | 3.66 µM (inactive) | 2.7 µM (inactive) | 6.38 µM (inactive) | 4.9 µM (inactive) | 3.65 µM (inactive) | 1.64 µM (inactive) | 1.07 µM (active) | 10 µM (inactive) | 4.46 µM (inactive) | 2.61 µM (inactive) | 1.61 µM (inactive) | 4.32 µM (inactive) | 7.87 µM (inactive) | 5.94 µM (inactive) | 1.53 µM (inactive) | 2.67 µM (inactive) | 2.61 µM (inactive) | 3.76 µM (inactive) |
| CC(=O)c1c(-c2cccc3ccccc23)c(C#N)c(=S)n(C2OC(CO)C(O)C(O)C2O)c1C (stereo not drawn) | > 100 µM (inactive) | > 100 µM (inactive) | 53.1 µM (inactive) | > 100 µM (inactive) | 54.8 µM (inactive) | 56.8 µM (inactive) | > 100 µM (inactive) | > 100 µM (inactive) | 38.9 µM (inactive) and 49.3 µM (inactive) | > 100 µM (inactive) | > 100 µM (inactive) and 52.2 µM (inactive) | > 100 µM (inactive) | > 100 µM (inactive) | > 100 µM (inactive) | > 100 µM (inactive) | > 100 µM (inactive) | 81.3 µM (inactive) | > 100 µM (inactive) | – | 87.5 µM (inactive) |
| COC(=O)C1Cc2c(OC)ccc(OC)c2C(O)C1C(=O)OC (stereo not drawn) | > 100 µM (inactive) | > 100 µM (inactive) | > 100 µM (inactive) | > 100 µM (inactive) | > 100 µM (inactive) | > 100 µM (inactive) | > 100 µM (inactive) | > 100 µM (inactive) | > 100 µM (inactive) | > 100 µM (inactive) | > 100 µM (inactive) | > 100 µM (inactive) | > 100 µM (inactive) | > 100 µM (inactive) | > 100 µM (inactive) | > 100 µM (inactive) | > 100 µM (inactive) | > 100 µM (inactive) | > 100 µM (inactive) | > 100 µM (inactive) |
| NC(=O)N/N=C1/CCC(O)CC1CC(=O)O (stereo not drawn) | > 100 µM (inactive) | > 100 µM (inactive) | > 100 µM (inactive) | > 100 µM (inactive) | > 100 µM (inactive) | > 100 µM (inactive) | > 100 µM (inactive) | > 100 µM (inactive) | > 100 µM (inactive) | > 100 µM (inactive) | > 100 µM (inactive) | > 100 µM (inactive) | > 100 µM (inactive) | > 100 µM (inactive) | > 100 µM (inactive) | > 100 µM (inactive) | > 100 µM (inactive) | > 100 µM (inactive) | > 100 µM (inactive) | > 100 µM (inactive) |
| CCOC(=O)/C(=C\c1ccnc2ccccc12)P(=O)(OCC)OCC | 1.94 µM (inactive) | 2.08 µM (inactive) | 2.25 µM (inactive) | 1.99 µM (inactive) | 1.93 µM (inactive) | 2.49 µM (inactive) | 1.6 µM (inactive) | 1.4 µM (inactive) | 4.65 µM (inactive) | 10.5 µM (inactive) | 1.9 µM (inactive) | 3.48 µM (inactive) | 1.33 µM (inactive) | 2.53 µM (inactive) | 2.99 µM (inactive) | 2.06 µM (inactive) | 3.01 µM (inactive) | 4.43 µM (inactive) | 2.9 µM (inactive) | – |
